In patent publication US8524750B2, “(Pyrazol-3-yl)-1,3,4-thiadiazol-2-amine and (pyrazol-3-yl)-1,3,4-thiazol-2-amine compounds” (Glaxo Group Limited, priority 2009, dated 2013):
Values after ≈ are worked out from the molar mass of the structure shown. Like-named read-outs stand apart in the source and are kept apart here.

Key:
[1] = tested on: Mycobacterium tuberculosis H37Rv; assay: Mycobacterium tuberculosis H37Rv Inhibition Assay (Whole Cell Assay); type: cell-based; details: ATCC 25618 / H37Rv, H37Rv strain (ATCC25618), Middlebrook 7H9, six days at 37° C., resazurin fluorescence after 48 hours
[2] = target: T1, Mycobacterium tuberculosis InhA (Mycobacterium tuberculosis, UniProt P9WGR1); assay: Mycobacterium tuberculosis InhA Inhibition Assay (Enzyme Assay); type: biochemical; details: 5 nM InhA, 50 μM DDCoA, 50 μM NADH, PIPES buffer pH 6.8, initial velocities of NADH consumption
T1 construct: made in house; host or cells: E. coli
T1 sequence (P9WGR1 whole entry, looked up): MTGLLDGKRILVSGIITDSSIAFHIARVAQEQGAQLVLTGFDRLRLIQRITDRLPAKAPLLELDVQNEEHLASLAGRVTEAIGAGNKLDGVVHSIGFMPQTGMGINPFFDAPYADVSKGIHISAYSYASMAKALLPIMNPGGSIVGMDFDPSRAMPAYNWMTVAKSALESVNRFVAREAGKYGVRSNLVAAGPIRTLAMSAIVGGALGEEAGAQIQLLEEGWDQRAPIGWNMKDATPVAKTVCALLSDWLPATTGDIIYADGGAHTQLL
Procedure: Mycobacterium tuberculosis InhA Inhibition Assay (Enzyme Assay)
InhA is able to reduce 2-trans enoyl-CoA esters with concomitant oxidation of NADH to NAD^+. The assay format is based on the kinetic detection of NADH consumption.
Assay for InhA inhibition is carried out with mycobacterium recombinant protein expressed and purified form E. coli. Standard assay conditions for the determination of kinetic constants and inhibitors activity use 5 nM of InhA, 50 μM of Dodecenoyl-CoA synthesized and purified as described by Quernard et al (DDCoA) and 50 μM of NADH as substrates, and it is carried out in 30 mM PIPES buffer pH 6.8, containing 0.05% of BSA. […] Triclosan is used as positive control in every experiment. One μl of compounds is added to the wells containing 25 μl of the DDCoA+NADH mix, the reaction is started by adding 50 μl of the enzyme solution. Fluorescence from NADH is followed at room temperature during 20 minutes in a fluorescent plate reader (excitation at 340 nm; emission at 480 nm). IC50 values are determined using initial velocities of NADH consumption.
Quernard A, Sacchettini J C, Dessen A, et al. Enzymatic characterization of the target for isoniazid in Mycobacterium tuberculosis. Biochemistry 1995; 34:8235-41.

Row | Compound | MIC [1] [µM] | IC50 ([2]; read-out: IC50 value) [nM] | IC50 ([2]; IC50 value) [nM]
1 | Cc1ccn(C(C)c2nnc(Nc3ccn(Cc4ccccc4Cl)n3)s2)n1 (centres unmarked) [Example 42, N-{1-[(2-chlorophenyl)methyl]-1H-pyrazol-3-yl}-5-[1-(3-methyl-1H-pyrazol-1-yl)ethyl]-1,3,4-thiadiazol-2-amine] | 1 to 4 (≈ 0.4 to 1.6 µg/mL) | < 125 | –
2 | Cc1cc(C(F)F)nn1C(C)c1nnc(Nc2ccn(Cc3ccccc3)n2)s1 (centres unmarked) [Example 43, 5-{1-[3-(difluoromethyl)-5-methyl-1H-pyrazol-1-yl]ethyl}-N-[1-(phenylmethyl)-1H-pyrazol-3-yl]-1,3,4-thiadiazol-2-amine] | 4 to 10 (≈ 1.66 to 4.15 µg/mL) | < 120 | –
3 | Cc1ccn(C(C)c2nnc(Nc3ccn(Cc4ccccc4)n3)s2)n1 (centres unmarked) [Example 44, 5-[1-(3-methyl-1H-pyrazol-1-yl)ethyl]-N-[1-(phenylmethyl)-1H-pyrazol-3-yl]-1,3,4-thiadiazol-2-amine] | 1 to 4 (≈ 0.365 to 1.46 µg/mL) | – | 137 to 274
4 | Cc1cc(C(F)F)nn1Cc1nnc(Nc2ccn(Cc3ccccc3)n2)s1 [Example 45, 5-{[3-(difluoromethyl)-5-methyl-1H-pyrazol-1-yl]methyl}-N-[1-(phenylmethyl)-1H-pyrazol-3-yl]-1,3,4-thiadiazol-2-amine] | > 10 | – | 125 to 249
5 | Cc1cc(C(F)F)nn1Cc1nnc(Nc2ccn(Cc3ccccc3Cl)n2)s1 [Example 46, N-{1-[(2-chlorophenyl)methyl]-1H-pyrazol-3-yl}-5-{[3-(difluoromethyl)-5-methyl-1H-pyrazol-1-yl]methyl}-1,3,4-thiadiazol-2-amine] | > 10 | – | < 115
6 | O=[N+]([O-])c1ccn(Cc2nnc(Nc3ccn(Cc4c(Cl)cccc4Cl)n3)s2)n1 [Example 47, N-{1-[(2,6-dichlorophenyl)methyl]-1H-pyrazol-3-yl}-5-[(3-nitro-1H-pyrazol-1-yl)methyl]-1,3,4-thiadiazol-2-amine] | > 10 | – | < 111
7 | Cc1cc(C(F)(F)F)nn1Cc1nnc(Nc2ccn(Cc3ccccc3Cl)n2)s1 [Example 48, N-{1-[(2-chlorophenyl)methyl]-1H-pyrazol-3-yl}-5-{[5-methyl-3-(trifluoromethyl)-1H-pyrazol-1-yl]methyl}-1,3,4-thiadiazol-2-amine] | > 10 | – | 110 to 220
8 | O=[N+]([O-])c1ccn(Cc2nnc(Nc3ccn(Cc4ccccc4Cl)n3)s2)n1 [Example 49, N-{1-[(2-chlorophenyl)methyl]-1H-pyrazol-3-yl}-5-[(3-nitro-1H-pyrazol-1-yl)methyl]-1,3,4-thiadiazol-2-amine] | > 10 | < 120 | –
9 | Cc1cc([N+](=O)[O-])nn1Cc1nnc(Nc2ccn(Cc3c(F)cccc3Cl)n2)s1 [Example 50, N-{1-[(2-chloro-6-fluorophenyl)methyl]-1H-pyrazol-3-yl}-5-[(5-methyl-3-nitro-1H-pyrazol-1-yl)methyl]-1,3,4-thiadiazol-2-amine] | > 10 | < 111 | –
10 | Cc1cc(C)n(Cc2nnc(Nc3ccn(Cc4c(F)cccc4Cl)n3)s2)n1 [Example 51, N-{1-[(2-chloro-6-fluorophenyl)methyl]-1H-pyrazol-3-yl}-5-[(3,5-dimethyl-1H-pyrazol-1-yl)methyl]-1,3,4-thiadiazol-2-amine] | > 10 | < 120 | –
11 | O=[N+]([O-])c1ccn(Cc2nnc(Nc3ccn(Cc4c(F)cccc4Cl)n3)s2)n1 [Example 52, N-{1-[(2-chloro-6-fluorophenyl)methyl]-1H-pyrazol-3-yl}-5-[(3-nitro-1H-pyrazol-1-yl)methyl]-1,3,4-thiadiazol-2-amine] | > 10 | – | 115 to 230
12 | Cc1cc(C)n(Cc2nnc(Nc3ccn(Cc4c(Cl)cccc4Cl)n3)s2)n1 [Example 53, N-{1-[(2,6-dichlorophenyl)methyl]-1H-pyrazol-3-yl}-5-[(3,5-dimethyl-1H-pyrazol-1-yl)methyl]-1,3,4-thiadiazol-2-amine] | > 10 | < 115 | –
13 | Cc1ccn(C(C)c2nnc(Nc3ccn(Cc4c(Cl)cccc4Cl)n3)s2)n1 (centres unmarked) [Example 54, N-{1-[(2,6-dichlorophenyl)methyl]-1H-pyrazol-3-yl}-5-[1-(3-methyl-1H-pyrazol-1-yl)ethyl]-1,3,4-thiadiazol-2-amine] | 1 to 4 (≈ 0.434 to 1.74 µg/mL) | < 115 | –
14 | Cc1cc(C(F)F)nn1Cc1nnc(Nc2ccn(Cc3c(F)cccc3Cl)n2)s1 [Example 55, N-{1-[(2-chloro-6-fluorophenyl)methyl]-1H-pyrazol-3-yl}-5-([3-(difluoromethyl)-5-methyl-I H-pyrazol-1-yl]methyl}-1,3,4-thiadiazol-2-amine] | > 10 | < 110 | –
15 | Cc1cc(C)n(Cc2nnc(Nc3ccn(Cc4ccccc4Cl)n3)s2)n1 [Example 56, N-{1-[(2-chlorophenyl)methyl]-1H-pyrazol-3-yl}-5-[(3,5-dimethyl-1H-pyrazol-1-yl)methyl]-1,3,4-thiadiazol-2-amine] | > 10 | < 125 | –
16 | Cc1ccn(Cc2nnc(Nc3ccn(Cc4c(Cl)cccc4Cl)n3)s2)n1 [Example 57, N-{1-[(2,6-dichlorophenyl)methyl]-1H-pyrazol-3-yl}-5-[(3-methyl-1H-pyrazol-1-yl)methyl]-1,3,4-thiadiazol-2-amine] | > 10 | < 119 | –
17 | Cc1cc([N+](=O)[O-])nn1Cc1nnc(Nc2ccn(Cc3ccccc3Cl)n2)s1 [Example 58, N-{1-[(2-chlorophenyl)methyl]-1H-pyrazol-3-yl}-5-[(5-methyl-3-nitro-1H-pyrazol-1-yl)methyl]-1,3,4-thiadiazol-2-amine] | > 10 | 232 to 1160 | –
18 | FC(F)(F)c1ccn(Cc2nnc(Nc3ccn(Cc4ccccc4Cl)n3)s2)n1 [Example 59, N-{1-[(2-chlorophenyl)methyl]-1H-pyrazol-3-yl}-5-{[3-(trifluoromethyl)-1H-pyrazol-1-yl]methyl}-1,3,4-thiadiazol-2-amine] | > 10 | 227 to 1140 | –
19 | Cc1ccn(Cc2nnc(Nc3ccn(Cc4ccccc4)n3)s2)n1 [Example 60, 5-[(3-methyl-1H-pyrazol-1-yl)methyl]-N-[1-(phenylmethyl)-1H-pyrazol-3-yl]-1,3,4-thiadiazol-2-amine] | > 10 | 285 to 1420 | –
20 | FC(F)(F)c1ccn(Cc2nnc(Nc3ccn(Cc4ccccc4)n3)s2)n1 [Example 61, N-[1-(phenylmethyl)-1H-pyrazol-3-yl]-5-{[3-(trifluoromethyl)-1H-pyrazol-1-yl]methyl}-1,3,4-thiadiazol-2-amine] | > 10 | 247 to 1230 | –
21 | Cc1cc([N+](=O)[O-])nn1Cc1nnc(Nc2ccn(Cc3ccccc3)n2)s1 [Example 62, 5-[(5-methyl-3-nitro-1H-pyrazol-1-yl)methyl]-N-[1-(phenylmethyl)-1H-pyrazol-3-yl]-1,3,4-thiadiazol-2-amine] | > 10 | 252 to 1260 | –
22 | Fc1cccc(Cl)c1Cn1ccc(Nc2nnc(Cn3ccc(C(F)(F)F)n3)s2)n1 [Example 63, N-{1-[(2-chloro-6-fluorophenyl)methyl]-1H-pyrazol-3-yl}-5-{[3-(trifluoromethyl)-1H-pyrazol-1-yl]methyl}-1,3,4-thiadiazol-2-amine] | > 10 | 218 to 1090 | –
23 | Cc1cc(C)n(Cc2nnc(Nc3ccn(Cc4ccccc4)n3)s2)n1 [Example 64, 5-[(3,5-dimethyl-1H-pyrazol-1-yl)methyl]-N-[1-(phenylmethyl)-1H-pyrazol-3-yl]-1,3,4-thiadiazol-2-amine] | > 10 | 274 to 1370 | –
24 | COC(C)(c1nc(C)cs1)c1nnc(Nc2ccn(Cc3c(F)cccc3Cl)n2)s1 (centres unmarked) [Example 72, N-{1-[(2-chloro-6-fluorophenyl)methyl]-1H-pyrazol-3-yl}-5-[1-(methyloxy)-1-(4-methyl-1,3-thiazol-2-yl)ethyl]-1,3,4-thiadiazol-2-amine] | 1 to 4 (≈ 0.465 to 1.86 µg/mL) | < 108 | –
25 | COC(c1nc(C)cs1)c1nnc(Nc2ccn(Cc3c(F)cccc3F)n2)s1 (centres unmarked) [Example 73, N-{1-[(2,6-difluorophenyl)methyl]-1H-pyrazol-3-yl}-5-[(methyloxy)(4-methyl-1,3-thiazol-2-yl)methyl]-1,3,4-thiadiazol-2-amine] | > 10 | – | 115 to 230
26 | Cc1csc(C(C)(C)c2nnc(Nc3ccn(Cc4c(F)cccc4Cl)n3)s2)n1 [Example 74, N-{1-[(2-chloro-6-fluorophenyl)methyl]-1H-pyrazol-3-yl}-5-[1-methyl-1-(4-methyl-1,3-thiazol-2-yl)ethyl]-1,3,4-thiadiazol-2-amine] | 1 to 4 (≈ 0.449 to 1.8 µg/mL) | – | < 111
27 | Cc1cc(C)n(C(C)c2nnc(Nc3ccn(Cc4ccc(F)cc4)n3)s2)n1 (centres unmarked) [Example 75, 5-[1-(3,5-dimethyl-1H-pyrazol-1-yl)ethyl]-N-{1-[(4-fluorophenyl)methyl]-1H-pyrazol-3-yl}-1,3,4-thiadiazol-2-amine] | > 10 | – | 126 to 252
28 | Cc1ccn(C(C)c2nnc(Nc3ccn(Cc4c(F)cccc4F)n3)s2)n1 (centres unmarked) [Example 76, N-{1-[(2,6-difluorophenyl)methyl]-1H-pyrazol-3-yl}-5-[1-(3-methyl-1H-pyrazol-1-yl)ethyl]-1,3,4-thiadiazol-2-amine] | ≤ 1 | – | < 125
